One series has as its target recombinant p300 (Homo sapiens (Human), UniProt Q09472). Briefly: HAT activity inhibition experiment (SensoLyte HAT(p300) Assay Kit). As to conditions: recombinant p300, histone H3 peptide, acetyl CoA. The series is classed as biochemical. Here is the method: The HAT activity inhibitory ability of HAT inhibitors was evaluated using SensoLyte HAT(p300) Assay Kit (ANASPEC, AS-72172). Specifically, 7.5 μL of the compound of Examples […] diluted with assay buffer was added to 7.5 μL of recombinant p300 solution diluted 10 times with assay buffer, and the mixture was incubated at room temperature for 10 minutes. 7.5 μL of acetyl CoA solution diluted 10 times with assay buffer and 15 μL of histone H3 peptide diluted 10 times with assay buffer were added thereto, and the mixture was incubated at 37° C. for 30 minutes. 37.5 μL of Stop Solution was added to stop the reaction. 75 μL of p300 Developer solution diluted 50 times with assay buffer was added, and the mixture was incubated at room temperature for 30 minutes under light-shielded conditions. The fluorescence at 513 nm when irradiated with 389 nm excitation light was measured using a multiplate reader.

The subject of the next series is G-401 cells. The series is described as follows: Cell proliferation inhibition experiment using G-401 cells. It is filed as cell-based. The note with it: Homo sapiens, 72 h, cultured for 3 days, CellTiter-Glo. Here is the method:
G-401 cells (derived from malignant rhabdoid tumor) were obtained from the American Type Culture Collection (ATCC). G-401 cells were cultured in McCoy's 5A medium containing 10% fetal bovine serum and 1% penicillin/streptomycin under conditions of 37° C. and 5% CO2.
500 cells per well were seeded in a 384-well plate. One day after seeding, Examples 1 to 35 were added so that the final concentration of DMSO was 0.1%, and the cells were cultured for 3 days. After the culture was completed, the cell viability was measured using CellTiter-Glo Luminescent Cell Viability Assay (Promega, G7570).
For orientation: Cellular ATP, detected with luciferase, serves as a proxy for viable cell number.

Series [1] can be described thus: Membrane permeability test (PAMPA). It is filed as in vitro ADME. As to the method:
The membrane permeability of the test compound was tested by parallel artificial membrane permeability assay (PAMPA) as follows. 200 μL of System solution (pION Inc.) containing the test compound and 4 μL of GIT Lipid-0 (pION Inc.) were added to the donor plate. 200 μL of Acceptor Sink Buffer (pION Inc.) was added to the acceptor plate. Both plates were overlapped and incubated at 37° C. for 4 hours, after which the UV of the solutions on the acceptor side and donor side was measured using a UV plate reader (190-500 nm). Compounds with poor UV absorption were measured using LC-MS. The permeability coefficient Pe (10^−6 cm/sec) of the drug was calculated using the following equation.
On the technique in general: PAMPA measures passive passage across an artificial lipid membrane.

Where [2] appears, read: pH 5.0, 37° C., read-out: pH 5.0 Pe.
The mark [3] stands for this setting: pH 7.4, 37° C., read-out: pH 7.4 Pe.

Where two headings read alike, the source gives them in different places.

Chain of recombinant p300 (Q09472 whole entry): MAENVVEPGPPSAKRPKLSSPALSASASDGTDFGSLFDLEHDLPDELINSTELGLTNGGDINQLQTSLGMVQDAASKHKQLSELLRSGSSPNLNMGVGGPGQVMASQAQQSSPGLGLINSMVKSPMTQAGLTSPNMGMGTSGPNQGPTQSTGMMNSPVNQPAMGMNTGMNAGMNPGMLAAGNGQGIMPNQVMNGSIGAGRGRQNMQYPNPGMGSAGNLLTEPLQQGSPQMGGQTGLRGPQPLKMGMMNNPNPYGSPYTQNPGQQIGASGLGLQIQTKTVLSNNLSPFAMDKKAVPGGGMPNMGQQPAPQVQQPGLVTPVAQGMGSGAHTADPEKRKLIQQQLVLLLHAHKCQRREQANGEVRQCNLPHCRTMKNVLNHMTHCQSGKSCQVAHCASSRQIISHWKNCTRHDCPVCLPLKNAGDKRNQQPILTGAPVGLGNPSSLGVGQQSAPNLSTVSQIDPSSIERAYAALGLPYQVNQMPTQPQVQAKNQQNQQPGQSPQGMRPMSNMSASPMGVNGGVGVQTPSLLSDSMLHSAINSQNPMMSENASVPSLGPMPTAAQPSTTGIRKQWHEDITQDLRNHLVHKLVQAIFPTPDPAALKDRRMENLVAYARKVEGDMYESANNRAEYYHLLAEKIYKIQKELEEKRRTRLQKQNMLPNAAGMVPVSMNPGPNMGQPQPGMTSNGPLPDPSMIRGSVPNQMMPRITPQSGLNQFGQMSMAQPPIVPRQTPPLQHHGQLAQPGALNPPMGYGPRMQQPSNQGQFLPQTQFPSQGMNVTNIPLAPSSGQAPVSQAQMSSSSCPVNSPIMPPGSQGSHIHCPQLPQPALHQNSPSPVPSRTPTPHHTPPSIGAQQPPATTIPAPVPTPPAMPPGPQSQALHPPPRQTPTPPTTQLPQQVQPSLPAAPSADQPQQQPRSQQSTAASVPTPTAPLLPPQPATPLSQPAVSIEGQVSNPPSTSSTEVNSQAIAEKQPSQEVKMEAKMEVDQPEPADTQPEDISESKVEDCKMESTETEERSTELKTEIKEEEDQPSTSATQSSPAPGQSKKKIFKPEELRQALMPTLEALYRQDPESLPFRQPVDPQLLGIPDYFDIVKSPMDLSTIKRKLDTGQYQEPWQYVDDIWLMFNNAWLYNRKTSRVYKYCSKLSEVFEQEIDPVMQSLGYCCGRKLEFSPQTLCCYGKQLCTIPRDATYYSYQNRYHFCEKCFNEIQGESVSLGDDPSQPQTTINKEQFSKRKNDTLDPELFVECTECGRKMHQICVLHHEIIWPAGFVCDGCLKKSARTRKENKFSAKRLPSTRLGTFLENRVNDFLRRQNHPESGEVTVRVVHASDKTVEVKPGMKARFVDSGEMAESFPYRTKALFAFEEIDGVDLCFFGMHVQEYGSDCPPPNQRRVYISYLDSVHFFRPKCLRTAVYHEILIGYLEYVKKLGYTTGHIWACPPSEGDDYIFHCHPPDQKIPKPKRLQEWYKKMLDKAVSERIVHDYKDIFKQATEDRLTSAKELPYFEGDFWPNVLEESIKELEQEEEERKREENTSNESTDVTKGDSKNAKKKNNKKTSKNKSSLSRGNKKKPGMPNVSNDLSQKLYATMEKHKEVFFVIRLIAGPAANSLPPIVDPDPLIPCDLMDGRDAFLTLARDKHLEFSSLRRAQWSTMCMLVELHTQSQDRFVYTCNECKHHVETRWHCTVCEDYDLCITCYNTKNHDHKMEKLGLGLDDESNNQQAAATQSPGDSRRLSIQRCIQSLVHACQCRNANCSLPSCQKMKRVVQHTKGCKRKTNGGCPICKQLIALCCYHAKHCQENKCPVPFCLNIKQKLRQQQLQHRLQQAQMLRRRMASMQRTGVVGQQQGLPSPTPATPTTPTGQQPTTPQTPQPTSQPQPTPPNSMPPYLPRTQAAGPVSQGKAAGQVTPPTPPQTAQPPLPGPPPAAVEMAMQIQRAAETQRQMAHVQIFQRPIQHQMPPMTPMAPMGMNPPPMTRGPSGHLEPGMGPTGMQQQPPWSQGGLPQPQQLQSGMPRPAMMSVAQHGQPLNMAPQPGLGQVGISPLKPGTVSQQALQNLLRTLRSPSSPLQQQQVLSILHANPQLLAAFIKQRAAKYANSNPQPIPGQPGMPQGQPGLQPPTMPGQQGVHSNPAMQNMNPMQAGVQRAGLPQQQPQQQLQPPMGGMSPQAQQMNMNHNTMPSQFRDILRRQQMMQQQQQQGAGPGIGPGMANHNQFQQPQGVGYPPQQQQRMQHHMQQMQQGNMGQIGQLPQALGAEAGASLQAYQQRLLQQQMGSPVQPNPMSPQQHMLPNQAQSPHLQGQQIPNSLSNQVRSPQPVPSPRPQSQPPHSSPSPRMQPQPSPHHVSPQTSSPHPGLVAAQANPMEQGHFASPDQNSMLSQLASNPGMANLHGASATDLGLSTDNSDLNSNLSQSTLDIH

For orientation: IC50 means the midpoint of a concentration-inhibition curve. `CN1CC(N(Cc2ccc(F)cc2)C(=O)CN2C(=O)N[C@]3(CCc4cc(-c5cn(C)nc5F)ccc43)C2=O)(C(F)(F)F)C1` [Example 18, 2-[(1′S)-5′-(3-fluoro-1-methyl-1H-pyrazol-4-yl)-2,5-dioxo-2′,3′-dihydrospiro[imidazolidine-4,1′-inden]-1-yl]-N-[(4-fluorophenyl)methyl]-N-[1-methyl-3-(trifluoromethyl)azetidin-3-yl]acetamide]: the concentration for half-maximal inhibition (IC50) was 58.2 nM on recombinant p300 and 292 nM in the series with G-401 cells. Further, the values for the Papp at 4 h in series [1] (setting [2]) and in series [1] (setting [3]) were 28.6 ×10⁻⁶ cm/s and 31.8 ×10⁻⁶ cm/s, respectively.

Take `CN1CC(N(Cc2ccc(F)cn2)C(=O)CN2C(=O)N[C@]3(C[C@@H](F)c4cc(-c5cnn(C(C)(C)C#N)c5)ccc43)C2=O)(C(F)(F)F)C1` [Example 26, 2-{(1′S,3′R)-5′-[1-(2-cyanopropan-2-yl)-1H-pyrazol-4-yl]-3′-fluoro-2,5-dioxo-2′,3′-dihydrospiro[imidazolidine-4,1′-inden]-1-yl}-N-[(5-fluoropyridin-2-yl)methyl]-N-[1-methyl-3-(trifluoromethyl)azetidin-3-yl]acetamide]: the IC50 at recombinant p300 turned out to be 9.2 nM; in the series on G-401 cells it was 14 nM. Also, the Papp at 4 h in series [1] (setting [2]) was determined as 10.2 ×10⁻⁶ cm/s; in series [1] (setting [3]), 16.3 ×10⁻⁶ cm/s.

On to `CN1CC(N(Cc2ccc(F)cn2)C(=O)CN2C(=O)N[C@]3(C[C@@H](F)c4cc(-c5cnn(C(C)(C)CO)c5)ccc43)C2=O)(C(F)(F)F)C1` [Example 27, 2-{(1′S,3′R)-3′-fluoro-5′-[1-(1-hydroxy-2-methylpropan-2-yl)-1H-pyrazol-4-yl]-2,5-dioxo-2′,3′-dihydrospiro[imidazolidine-4,1′-inden]-1-yl}-N-[(5-fluoropyridin-2-yl)methyl]-N-[1-methyl-3-(trifluoromethyl)azetidin-3-yl]acetamide], for which the 50% inhibitory concentration (IC50) on recombinant p300 is 6.8 nM; with G-401 cells, 22 nM. The results for the Papp at 4 h in series [1] (setting [2]) and in series [1] (setting [3]) were 0.6 ×10⁻⁶ cm/s and 3.5 ×10⁻⁶ cm/s, respectively.

With `CN1CC(N(Cc2ccc(F)cc2)C(=O)CN2C(=O)N[C@]3(CCc4cc(-c5cnn(C)c5F)ccc43)C2=O)(C(F)(F)F)C1` [Example 16, 2-[(1′S)-5′-(5-fluoro-1-methyl-1H-pyrazol-4-yl)-2,5-dioxo-2′,3′-dihydrospiro[imidazolidine-4,1′-inden]-1-yl]-N-[(4-fluorophenyl)methyl]-N-[1-methyl-3-(trifluoromethyl)azetidin-3-yl]acetamide], the values for the half-maximal inhibitory concentration (IC50) on recombinant p300 and in the series with G-401 cells were 53.6 nM and 310 nM, respectively. The figures for the Papp at 4 h in series [1] (setting [2]) and in series [1] (setting [3]) were 29.2 ×10⁻⁶ cm/s and 32 ×10⁻⁶ cm/s, respectively.

Consider `O=C1N[C@]2(CCc3cc(-c4cnn(C5CN(C6COC6)C5)c4)ccc32)C(=O)N1CC(=O)N(Cc1ccc(F)cn1)C1(C(F)(F)F)COC1` [Example 6, N-[(5-fluoropyridin-2-yl)methyl]-2-[(1′S)-5′-{1-[1-(oxetan-3-yl)azetidin-3-yl]-1H-pyrazol-4-yl}-2,5-dioxo-2′,3′-dihydrospiro[imidazolidine-4,1′-inden]-1-yl]-N-[3-(trifluoromethyl)oxetan-3-yl]acetamide], for which the IC50 is 19.8 nM at recombinant p300 and 391 nM with G-401 cells. Further, the Papp at 4 h is 3.1 ×10⁻⁶ cm/s in series [1] (setting [2]) and 5.5 ×10⁻⁶ cm/s in series [1] (setting [3]).

With `CN1CC(N(Cc2ccc(F)cc2)C(=O)CN2C(=O)N[C@]3(C[C@@H](F)c4cc(-c5cn(C)nc5F)ccc43)C2=O)(C(F)(F)F)C1` [Example 17, 2-[(1′S,3′R)-3′-fluoro-5′-(3-fluoro-1-methyl-1H-pyrazol-4-yl)-2,5-dioxo-2′,3′-dihydrospiro[imidazolidine-4,1′-inden]-1-yl]-N-[(4-fluorophenyl)methyl]-N-[1-methyl-3-(trifluoromethyl)azetidin-3-yl]acetamide], the IC50 was found to be 2.3 nM at recombinant p300 and 25 nM in the series with G-401 cells. Besides, the Papp at 4 h in series [1] (setting [2]) stood at 28.1 ×10⁻⁶ cm/s; in series [1] (setting [3]), 32.2 ×10⁻⁶ cm/s.

Regarding `CN1CC(N(Cc2ccc(F)cc2)C(=O)CN2C(=O)N[C@]3(C[C@@H](F)c4cc(-c5cnn(C)c5)c(F)cc43)C2=O)(C(F)(F)F)C1` [Example 29, 2-[(1′S,3′R)-3′,6′-difluoro-5′-(1-methyl-1H-pyrazol-4-yl)-2,5-dioxo-2′,3′-dihydrospiro[imidazolidine-4,1′-inden]-1-yl]-N-[(4-fluorophenyl)methyl]-N-[1-methyl-3-(trifluoromethyl)azetidin-3-yl]acetamide], the IC50 at recombinant p300 is 2.8 nM; in the series with G-401 cells, 17 nM. Moreover, the Papp at 4 h in series [1] (setting [2]) came to 23.9 ×10⁻⁶ cm/s; in series [1] (setting [3]), 28.3 ×10⁻⁶ cm/s.

For the compound `CN1CC(N(Cc2ccc(F)cc2)C(=O)CN2C(=O)N[C@@]3(C[C@H](F)c4cc(-c5cnn(C)c5)c(F)cc43)C2=O)(C(F)(F)F)C1` [Example 28, 2-[(1′R,3'S)-3′,6′-difluoro-5′-(1-methyl-1H-pyrazol-4-yl)-2,5-dioxo-2′,3′-dihydrospiro[imidazolidine-4,1′-inden]-1-yl]-N-[(4-fluorophenyl)methyl]-N-[1-methyl-3-(trifluoromethyl)azetidin-3-yl]acetamide], the Papp at 4 h in series [1] (setting [2]) is 25.7 ×10⁻⁶ cm/s; in series [1] (setting [3]), 30 ×10⁻⁶ cm/s.

Regarding `CN1CC(N(Cc2ccc(F)cc2)C(=O)CN2C(=O)N[C@]3(C[C@@H](F)c4cc(-c5cnn(C6CCOCC6)c5)ccc43)C2=O)(C(F)(F)F)C1` [Example 19, 2-{(1′S,3′R)-3′-fluoro-5′-[1-(oxan-4-yl)-1H-pyrazol-4-yl]-2,5-dioxo-2′,3′-dihydrospiro[imidazolidine-4,1′-inden]-1-yl}-N-[(4-fluorophenyl)methyl]-N-[1-methyl-3-(trifluoromethyl)azetidin-3-yl]acetamide], the IC50 stood at 7.2 nM at recombinant p300 and 24 nM in the series with G-401 cells. Further, the figures for the Papp at 4 h in series [1] (setting [2]) and in series [1] (setting [3]) were 24.4 ×10⁻⁶ cm/s and 28.9 ×10⁻⁶ cm/s, respectively.

As for `CN1CCn2ncc(-c3ccc4c(c3)[C@H](F)C[C@]43NC(=O)N(CC(=O)N(Cc4ccc(F)cc4)C4(C(F)(F)F)COC4)C3=O)c2C1` [Example 14, 2-[(1′S, 3′R)-3′-fluoro-5′-(5-methyl-4,5,6,7-tetrahydropyrazolo[1,5-a]pyrazin-3-yl)-2,5-dioxo-2′,3′-dihydrospiro[imidazolidine-4,1′-inden]-1-yl]-N-[(4-fluorophenyl)methyl]-N-[3-(trifluoromethyl)oxetan-3-yl]acetamide], the IC50 at recombinant p300 stood at 124 nM; in the series on G-401 cells, 677 nM. In addition, the figures for the Papp at 4 h in series [1] (setting [2]) and in series [1] (setting [3]) were 26.1 ×10⁻⁶ cm/s and 27.9 ×10⁻⁶ cm/s, respectively.

For the compound `CN(C)C1(Cn2cc(-c3ccc4c(c3)[C@H](F)C[C@]43NC(=O)N(CC(=O)N(Cc4ccc(F)cc4)C4(C(F)(F)F)COC4)C3=O)cn2)COC1` [Example 22, 2-[(1′S,3′R)-5′-(1-{[3-(dimethylamino)oxetan-3-yl]methyl}-1H-pyrazol-4-yl)-3′-fluoro-2,5-dioxo-2′,3′-dihydrospiro[imidazolidine-4,1′-inden]-1-yl]-N-[(4-fluorophenyl)methyl]-N-[3-(trifluoromethyl)oxetan-3-yl]acetamide], the IC50 on recombinant p300 worked out at 11 nM; with G-401 cells it was 68 nM. Besides, the Papp at 4 h in series [1] (setting [2]) worked out at 21.2 ×10⁻⁶ cm/s; in series [1] (setting [3]) it was 23 ×10⁻⁶ cm/s.

`CN1CC(N(Cc2ccc(F)cc2)C(=O)CN2C(=O)N[C@]3(C[C@@H](F)c4cc(-c5cnn(C)c5F)ccc43)C2=O)(C(F)(F)F)C1` [Example 15, 2-[(1′S,3′R)-3′-fluoro-5′-(5-fluoro-1-methyl-1H-pyrazol-4-yl)-2,5-dioxo-2′,3′-dihydrospiro[imidazolidine-4,1′-inden]-1-yl]-N-[(4-fluorophenyl)methyl]-N-[1-methyl-3-(trifluoromethyl)azetidin-3-yl]acetamide]: the IC50 on recombinant p300 is 6.1 nM; in the series with G-401 cells it was 33 nM. For the same compound, the Papp at 4 h in series [1] (setting [2]) amounted to 30 ×10⁻⁶ cm/s; in series [1] (setting [3]), 33.3 ×10⁻⁶ cm/s.

Regarding `O=C1N[C@]2(CCc3cc(-c4cnn(C5CN(C6COC6)C5)c4)ccc32)C(=O)N1CC(=O)N(Cc1ccc(F)cn1)C1(C(F)(F)F)CC(F)(F)C1` [Example 8, N-[3,3-difluoro-1-(trifluoromethyl)cyclobutyl]-N-[(5-fluoropyridin-2-yl)methyl]-2-[(1′S)-5′-{1-[1-(oxetan-3-yl)azetidin-3-yl]-1H-pyrazol-4-yl}-2,5-dioxo-2′,3′-dihydrospiro[imidazolidine-4,1′-inden]-1-yl]acetamide], the midpoint of inhibition with G-401 cells, the IC50, lay at 247 nM. In addition, the figures for the Papp at 4 h in series [1] (setting [2]) and in series [1] (setting [3]) were 13.5 ×10⁻⁶ cm/s and 14.3 ×10⁻⁶ cm/s, respectively.

Source of the values: patent US20250257055A1, “TERTIARY AMIDE DERIVATIVES SUBSTITUTED WITH 4-MEMBERED RING STRUCTURE” (Sumitomo Pharma Co., Ltd., priority 2024, published 2025).
